Test results: patent US20090088419A1, “PYRIDYL ACETIC ACID COMPOUNDS” (TAKEDA PHARMACEUTICAL COMPANY LIMITED, priority 2005, published 2009)
Where a name gives a salt, the structure may show the parent alone.

Each compound was assayed against T1, dipeptidyl peptidase IV (Rattus norvegicus, UniProt P14740) (assay: Determination of dipeptidyl peptidase IV inhibitory activity in rat plasma (Experimental Example 2)). Details: plasma of SD rat, same manner as Experimental Example 1; Table 6.
T1 construct: from tissue; host or cells: SD rat blood plasma
T1 sequence (P14740 37-767 limits assumed): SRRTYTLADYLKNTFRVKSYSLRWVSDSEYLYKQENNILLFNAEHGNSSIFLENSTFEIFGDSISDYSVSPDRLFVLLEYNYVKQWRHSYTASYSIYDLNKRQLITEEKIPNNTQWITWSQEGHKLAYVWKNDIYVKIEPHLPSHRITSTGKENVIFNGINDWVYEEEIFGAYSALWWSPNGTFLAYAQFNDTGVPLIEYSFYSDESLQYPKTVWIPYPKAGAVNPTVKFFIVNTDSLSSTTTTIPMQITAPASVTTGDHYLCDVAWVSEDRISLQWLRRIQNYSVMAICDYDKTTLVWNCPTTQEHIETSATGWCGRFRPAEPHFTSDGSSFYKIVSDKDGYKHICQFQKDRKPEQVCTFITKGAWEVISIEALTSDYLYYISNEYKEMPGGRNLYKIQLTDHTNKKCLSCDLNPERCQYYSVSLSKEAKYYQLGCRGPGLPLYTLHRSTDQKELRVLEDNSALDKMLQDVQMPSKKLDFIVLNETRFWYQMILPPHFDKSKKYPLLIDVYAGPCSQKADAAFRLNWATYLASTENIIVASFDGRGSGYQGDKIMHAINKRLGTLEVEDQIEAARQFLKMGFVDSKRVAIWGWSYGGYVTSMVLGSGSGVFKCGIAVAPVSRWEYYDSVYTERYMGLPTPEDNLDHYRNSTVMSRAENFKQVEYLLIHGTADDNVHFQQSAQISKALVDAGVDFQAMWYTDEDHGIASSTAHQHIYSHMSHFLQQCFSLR
Type: biochemical
Protocol: (§1) A dimethylformamide solution (1 μL) containing the test compound was added to a mixture of water (69 μL), 1 M Tris-hydrochloride buffer (10 μL, pH 7.5) and 1 mM aqueous Gly-Pro-p-NA solution (100 μL) to prepare a mixed solution. Plasma (20 μL) prepared from blood of SD rat according to a conventional method was added to the above-mentioned mixed solution and the enzyme reaction was started at 30° C. The absorbance after 0 hr. and 1 hr. was measured using a microplate reader at a wavelength of 405 nm and an increase (AODs) was determined. At the same time, an increase (AODc) in absorbance of the reaction mixture without the test compound, and an increase (AODb) in absorbance of the reaction mixture without the test compound and the enzyme were determined and the inhibition rate of dipeptidyl peptidase IV enzyme activity was calculated from the following formula:
(§2) {1−[(ΔODs−ΔODb)/(ΔODc−ΔODb)]}×100
(§3) Determination of Dipeptidyl Peptidase IV Inhibitory Activity in Rat Plasma

Row | Structure (SMILES) | IC50
1 | Cc1ccc(-c2c(CN)c(CC(C)C)nc(CC(C)C)c2CC(=O)O)cc1 [Example 2, [5-(aminomethyl)-2,6-diisobutyl-4-(4-methylphenyl)pyridin-3-yl]acetic acid dihydrochloride] | 35 nM
2 | CCc1nc(CC(C)(C)C)c(CN)c(-c2ccc(C)cc2)c1CC(=O)N1CCC[C@H]1C(N)=O [Example 6, 1-{[5-(aminomethyl)-2-ethyl-4-(4-methylphenyl)-6-neopentylpyridin-3-yl]acetyl}-L-prolinamide] | 2.7 nM

Other lines, results leading:

Row | IC50 | Structure (SMILES)
3 | 5.1 nM | CCc1nc(CC(C)(C)C)c(CN)c(-c2ccc(C)cc2)c1CC(=O)Nc1cccc(C(C)=O)c1 [Example 5, N-(3-acetylphenyl)-2-[5-(aminomethyl)-2-ethyl-4-(4-methylphenyl)-6-neopentylpyridin-3-yl]acetamide dihydrochloride]
4 | 51 nM | CCc1nc(CC(C)(C)C)c(CN)c(-c2ccc(C)cc2)c1CC(=O)Nc1cccc(S(C)(=O)=O)c1 [Example 7, 2-[5-(aminomethyl)-2-ethyl-4-(4-methylphenyl)-6-neopentylpyridin-3-yl]-N-[3-(methylsulfonyl)phenyl]acetamide dihydrochloride]

The compounds below were run against T1, dipeptidyl peptidase IV (assay: Determination of dipeptidyl peptidase IV inhibitory activity in rat plasma (Experimental Example 1)). Details: plasma of SD rat, substrate Gly-Pro-p-NA, 30° C., absorbance 405 nm after 1 hr; Table 5.
Type: biochemical
Protocol: as §3, §1, §2
The dipeptidyl peptidase IV inhibitory activity of the test compound group is expressed in IC50 value (nM) and shown in Table 5.

Row | Structure (SMILES) | IC50
5 | CCc1nc(CC(C)C)c(CN)c(-c2ccc(C)cc2)c1CC(=O)O [Example 1, [5-(aminomethyl)-2-ethyl-6-isobutyl-4-(4-methylphenyl)pyridin-3-yl]acetic acid] | 33 nM
6 | CC(=O)N1CCN(C(=O)Cc2c(CC(C)C)nc(CC(C)C)c(CN)c2-c2ccc(C)cc2)CC1 [Example 47] | 4.8 nM
7 | CCc1nc(CC(C)(C)C)c(CN)c(-c2ccc(C)cc2)c1CC(=O)N1C[C@@H](C)O[C@@H](C)C1 [Example 64] | 1.7 nM
8 | Cc1ccc(-c2c(CN)c(CC(C)C)nc(CC(C)C)c2CC(=O)N2CCC(S(C)(=O)=O)C2)cc1 (stereo not shown) [Example 10, [(2,6-diisobutyl-4-(4-methylphenyl)-5-{2-[3-(methylsulfonyl)pyrrolidin-1-yl]-2-oxoethyl}pyridin-3-yl)methyl]amine ditrifluoroacetate] | 0.85 nM
9 | Cc1ccc(-c2c(CN)c(CC(C)C)nc(CC(C)C)c2CC(=O)N2C[C@@H](C)O[C@@H](C)C2)cc1 [Example 20] | 8.4 nM
10 | Cc1ccc(-c2c(CN)c(CC(C)C)nc(CC(C)C)c2CC(=O)N2CCC[C@H]2C(N)=O)cc1 [Example 45] | 2 nM

Other lines, results leading:

Row | IC50 | Structure (SMILES)
11 | 0.32 nM | CCc1nc(CC(C)(C)C)c(CN)c(-c2ccc(C)cc2)c1CC(=O)N1CCC[C@H]1C(N)=O [Example 87]
12 | 11 nM | CCc1nc(CC(C)(C)C)c(CN)c(-c2ccc(C)cc2)c1CC(=O)Nc1ccc(C(C)=O)cc1 [Example 80]
13 | 3.6 nM | CCc1nc(CC(C)(C)C)c(CN)c(-c2ccc(C)cc2)c1CC(=O)N1CCN(C(C)=O)CC1 [Example 89]
